Like-named read-outs stand apart in the source and are kept apart here.

This test concerns the target human CCR2 (Homo sapiens, UniProt P41597). In words: CCR2 functional calcium assay (FLIPR calcium flux, hMCP-1 challenge). Type of test: cell-based. Set-up: expressed in transfected cells; host or cells: HEK293 EBNA cells. An excerpt:
The CCR2 receptor couples through the Gi/Gq signaling pathway and results in activation of calcium mobilization. The functional activity of test compounds was routinely tested by measuring the ability of compounds to antagonize CCR2 activity in a dose dependent manner, in HEK293 EBNA cells transfected with the human CCR2 receptor (hMCP-1 challenge), using a calcium flux Fluorescent Imaging Plate Reader FLIPR assay. Non-transfected HEK293 EBNA cells were used as control of non-specific response.
Briefly, test compounds were dissolved in dimethyl sulfoxide (DMSO) to a concentration of 10 mM and stored in matrix screenmate racks. The required amount of compound was transferred to 96-well compound plates on the day of assay and diluted in assay buffer to the required final concentration; dose-response measurements were assayed by making 1:3 serial dilutions to produce 10 point curves. The compounds were then transferred to 384-well assay plates ready for use. Top concentrations were adjusted depending on the potency of the compounds with a typical concentration range of 30 μM to 0.5 nM being used. The assay buffer used was HBSS buffer supplemented with 20 mM HEPES and 0.1% BSA, pH7.4. The loading/wash buffers were the same as the assay buffer.
Cells were suspended in culture medium at a density of 10000 cells/50 μl (the cell culture media composition was DMEM high glucose supplemented with 10% dialyzed FBS, 250 μg/ml Geneticin, and 400 μg/ml Hygromycin B), transferred to 384-well black/clear Costar plates (Costar #3712) (50 μl/well) and incubated at 37° C., in a 5% CO2/95% air humidified incubator for 16 h. The cells were washed with assay buffer at 37° C. using the Biotek ELx 405, washing 3 times, leaving 20 μl buffer in the well. 20 μl Fluo-4 (Fluo-4 stock solution (1 mM) was prepared by dissolving one vial of Fluo-4 (50 μg) in 45 μl of pluronic acid (240 mg/ml in DMSO). This stock solution of Fluo-4 was then diluted 250 times with loading buffer to give a Fluo-4 concentration of 4 μM. The dye solution (used within 2 h and kept away from light) was added to each well using a repeating multichannel pipette; the cells were then incubated at 37° C. for 60 min. Following the incubation, cells were washed in assay buffer at 37° C. using the Biotek ELx 405, washing 3 times, leaving 40 μl in each well and incubated for 10 min at 37° C. before use. A combined agonist/antagonist protocol was used. Compound (antagonist) was added to the cell plate using the FLIPR. Basal fluorescence was recorded every second for 10 seconds prior to compound addition (10 μl) and fluorescence recorded every second for 1 minute then every 6 seconds for a further 1 minute. Agonist (MCP-1) was then added using the FLIPR and fluorescence recorded as described above.
The positive control (agonist) was human recombinant MCP-1 which was stored as a stock concentration of 10 μM in distilled water and stored at −20° C. (maximal response: 30 nM; EC50 dose: 3-5 nM). The reference compound (antagonist) was RS102895 which was used as a 10 mM DMSO solution and stored at −20° C.
FLIPR responses were measured as peak minus basal fluorescence intensity and were expressed as a percentage of EC50 MCP-1 challenge. Curve-fitting and parameter estimation were carried out using GraphPad Prism 4.0 (GraphPad Software Inc., San Diego, Calif.).

Setting [1] is: HEK293 EBNA cells transfected with human CCR2, hMCP-1 challenge, read-out: Functional CCR2 fKi.

Chain of human CCR2 (P41597 whole entry): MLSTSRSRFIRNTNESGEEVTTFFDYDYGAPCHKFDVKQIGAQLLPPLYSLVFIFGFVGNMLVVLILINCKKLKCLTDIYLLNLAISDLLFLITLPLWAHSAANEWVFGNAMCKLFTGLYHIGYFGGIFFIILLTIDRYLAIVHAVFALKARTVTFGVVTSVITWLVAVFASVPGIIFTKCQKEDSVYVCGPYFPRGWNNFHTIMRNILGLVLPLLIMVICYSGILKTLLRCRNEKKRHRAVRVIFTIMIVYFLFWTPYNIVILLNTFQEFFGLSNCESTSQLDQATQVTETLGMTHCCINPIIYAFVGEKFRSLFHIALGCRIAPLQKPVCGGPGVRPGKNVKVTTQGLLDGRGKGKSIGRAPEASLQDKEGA

Consider `COC(=O)c1nc2ccnn2c(O)c1Oc1ccc(Cl)c(Cl)c1` [Example 89, Methyl 6-(3,4-dichlorophenoxy)-7-hydroxypyrazolo[1,5-a]pyrimidine-5-carboxylate], for which the Ki under setting [1] is less than 10 nM.
Consider `CC(=O)c1nc2ccnn2c(O)c1Cc1ccc(Cl)c(Cl)c1` [Example 96, 1-{6-[(3,4-Dichlorophenyl)methyl]-7-hydroxypyrazolo[1,5-a]pyrimidin-5-yl}ethan-1-one], for which the Ki under setting [1] lay within 10 to 100 nM.
As for `Cc1nc2ccnn2c(O)c1Sc1cccc(F)c1` [Example 77, 6-[(3-Fluorophenyl)sulfanyl]-5-methyl-pyrazolo[1,5-a]pyrimidin-7-ol], the Ki under setting [1] was in the range of 100 to 1000 nM.
For the molecule `CNC(=O)c1cnn2c(O)c(Cc3ccc(Cl)cc3)c(C)nc12` [Example 99, 6-[(4-Chlorophenyl)methyl]-7-hydroxy-N,5-dimethylpyrazolo[1,5-a]pyrimidine-3-carboxamide], the Ki under setting [1] lay within 100 to 1000 nM.
Turning to `COCc1nc2ccnn2c(O)c1Cc1ccc(Cl)c(Cl)c1` [Example 53, 6-[(3,4-Dichlorophenyl)methyl]-5-(methoxymethyl)pyrazolo[1,5-a]pyrimidin-7-ol], the Ki under setting [1] is less than 10 nM.
The same measure, in the same setting: with `CCOC(=O)c1nc2ccnn2c(O)c1Cc1cccc(F)c1` [Example 73, Ethyl 6-[(3-fluorophenyl)methyl]-7-hydroxypyrazolo[1,5-a]pyrimidine-5-carboxylate] the figure was 100 to 1000 nM.
Regarding `Oc1c(Cc2ccc(Cl)c(Cl)c2)c(C2CCC2)nc2ccnn12` [Example 50, 5-Cyclobutyl-6-[(3,4-dichlorophenyl)-methyl]pyrazolo[1,5-a]pyrimidin-7-ol], the Ki under setting [1] was less than 10 nM.
`Cc1nc2c(C(=O)N3CCOCC3)cnn2c(O)c1Cc1ccc(C(F)(F)F)cc1` [Example 114]: under setting [1], the Ki lay in the range of 100 to 1000 nM.
Take `COc1cccc(Cc2c(C)nc3ccnn3c2O)c1` [Example 10, 6-[(3-Methoxyphenyl)methyl]-5-methyl-pyrazolo[1,5-a]pyrimidin-7-ol]: the Ki under setting [1] lay in the range of 100 to 1000 nM.
For the molecule `Cc1nc2ccnn2c(O)c1Oc1ccc(Cl)c(Cl)c1` [Example 60, 6-(3,4-Dichlorophenoxy)-5-methyl-pyrazolo[1,5-a]pyrimidin-7-ol], under setting [1], the Ki was in the range of 10 to 100 nM.
The same measure, in the same setting: as for `Oc1c(Cc2cc(F)cc(F)c2)c(C2CC2)nc2ccnn12` [Example 25, 5-Cyclopropyl-6-[(3,5-difluorophenyl)-methyl]pyrazolo[1,5-a]pyrimidin-7-ol], the figure is less than 10 nM.
As to `CCC(=O)c1nc2ccnn2c(O)c1Cc1ccc(Cl)c(Cl)c1` [Example 97, 1-{6-[(3,4-Dichlorophenyl)methyl]-7-hydroxypyrazolo[1,5-a]pyrimidin-5-yl}propan-1-one], the Ki under setting [1] was 10 to 100 nM.
Turning to `Oc1c(Cc2cccc(F)c2)c(-c2cnccn2)nc2cncn12` [Example 3, 3-[(3-Fluorophenyl)methyl]-2-(pyrazin-2-yl)imidazo[1,5-a]pyrimidin-4-ol], the Ki under setting [1] lay in the range of 100 to 1000 nM.
The term EC50 denotes the midpoint of the concentration-response curve. As to “MCP-1: human recombinant MCP-1, positive control (agonist) of the CCR2 functional assay”, where the note is “agonist positive control”, the EC50 lay in the range of 3 to 5 nM and the “concentration giving maximal response” value came out at 30 nM.
Consider `Oc1c(Cc2ccc(Cl)c(F)c2)c(C2CC2)nc2ccnn12` [Example 27, 6-[(4-Chloro-3-fluorophenyl)methyl]-5-cyclopropylpyrazolo[1,5-a]pyrimidin-7-ol], for which the Ki under setting [1] is less than 10 nM.
Consider `Cc1nc2c(Br)cnn2c(O)c1Cc1ccc(Cl)cc1` [Example 58, 3-Bromo-6-[(4-chlorophenyl)methyl]-5-methylpyrazolo[1,5-a]pyrimidin-7-ol], for which the Ki under setting [1] is 10 to 100 nM.
With `OCc1nc2ccnn2c(O)c1Cc1ccc(Cl)cc1` [Example 90, 6-[(4-Chlorophenyl)methyl]-5-(hydroxymethyl)pyrazolo[1,5-a]pyrimidin-7-ol], under setting [1], the Ki was in the range of 100 to 1000 nM.
As for `CC(C)c1nc2ccnn2c(O)c1Oc1ccc(Br)cc1` [Example 66, 6-(4-Bromophenoxy)-5-(propan-2-yl)-pyrazolo[1,5-a]pyrimidin-7-ol], under setting [1], the Ki is less than 10 nM.
Turning to `Oc1c(Cc2ccc(F)c(C(F)(F)F)c2)c(C2CCC2)nc2ccnn12` [Example 47, 5-Cyclobutyl-6-{[4-fluoro-3-(trifluoro-methyl)phenyl]methyl}pyrazolo[1,5-a]-pyrimidin-7-ol], the Ki under setting [1] was less than 10 nM.
For the molecule `CC(C)(O)c1nc2ccnn2c(O)c1Cc1cccc(F)c1` [Example 93, 6-[(3-Fluorophenyl)methyl]-5-(2-hydroxypropan-2-yl)pyrazolo[1,5-a]pyrimidin-7-ol], under setting [1], the Ki is 100 to 1000 nM.
Same read-out and setting: with `Cc1nc2ccnn2c(O)c1C(C)c1ccc(Cl)cc1` (stereo not drawn) [Example 11, 6-[1-(4-Chlorophenyl)ethyl]-5-methyl-pyrazolo[1,5-a]pyrimidin-7-ol] the figure was 100 to 1000 nM; with `Cc1ccc(Cc2c(C)nc3c(C(=O)NCCc4ccccn4)cnn3c2O)cc1` [Example 111, 7-Hydroxy-5-methyl-6-[(4-methylphenyl)-methyl]-N-[2-(pyridin-2-yl)ethyl]pyrazolo-[1,5-a]pyrimidine-3-carboxamide], 100 to 1000 nM; with `CC(O)c1nc2ccnn2c(O)c1Cc1cccc(F)c1` (stereo not drawn) [Example 95, 6-[(3-Fluorophenyl)methyl]-5-(1-hydroxyethyl)pyrazolo[1,5-a]pyrimidin-7-ol], 100 to 1000 nM.
`Oc1c(Cc2ccc(OC(F)(F)F)cc2)c(C2CC2)nc2ccnn12` [Example 19, 5-Cyclopropyl-6-{[4-(trifluoromethoxy)-phenyl]methyl}pyrazolo[1,5-a]pyrimidin-7-ol]: under setting [1], the Ki lay in the range of 10 to 100 nM.
In the case of `Cc1nc2ccnn2c(O)c1Nc1cccc(F)c1` [Example 78, 6-[(3-Fluorophenyl)amino]-5-methylpyrazolo[1,5-a]pyrimidin-7-ol], the Ki under setting [1] was in the range of 100 to 1000 nM.
Turning to `CC(C)c1nc2ccnn2c(O)c1Cc1cc(F)cc(Cl)c1` [Example 39, 6-[(3-Chloro-5-fluorophenyl)methyl]-5-(propan-2-yl)pyrazolo[1,5-a]pyrimidin-7-ol], the Ki under setting [1] was less than 10 nM.
On the same count and under the same terms, with `CC(C)c1nc2ccnn2c(O)c1Oc1ccc(Cl)c(F)c1` [Example 67, 6-(4-Chloro-3-fluorophenoxy)-5-(propan-2-yl)pyrazolo[1,5-a]pyrimidin-7-ol] the figure was less than 10 nM; with `CC(C)c1nc2ccnn2c(O)c1Cc1cc(Cl)cc(Cl)c1` [Example 42, 6-[(3,5-Dichlorophenyl)methyl]-5-(propan-2-yl)pyrazolo[1,5-a]pyrimidin-7-ol], less than 10 nM.
As to `Cc1nc2ccnn2c(O)c1Cc1ccc(C(F)(F)F)cc1` [Example 2, 5-Methyl-6-{[4-(trifluoromethyl)phenyl]methyl}pyrazolo[1,5-a]pyrimidin-7-ol], under setting [1], the Ki was in the range of 100 to 1000 nM.
`Oc1c(Cc2ccc(F)c(Cl)c2)c(C2CCC2)nc2ccnn12` [Example 46, 6-[(3-Chloro-4-fluorophenyl)methyl]-5-cyclobutylpyrazolo[1,5-a]pyrimidin-7-ol]: the Ki under setting [1] is less than 10 nM.
As for `Cc1nc2ccnn2c(O)c1Cc1ccc(Cl)c(Br)c1` [Example 9, 6-[(3-Bromo-4-chlorophenyl)methyl]-5-methylpyrazolo[1,5-a]pyrimidin-7-ol], under setting [1], the Ki was in the range of 10 to 100 nM.
Take `CCc1nc2ccnn2c(O)c1Oc1cccc(C(F)(F)F)c1` [Example 61, 5-Ethyl-6-[3-(trifluoromethyl)phenoxy] pyrazolo[1,5-a]pyrimidin-7-ol]: the Ki under setting [1] fell in the range of 100 to 1000 nM.
On to `CCc1nc2ccnn2c(O)c1Cc1cc(F)c(F)c(F)c1` [Example 13, 5-Ethyl-6-[(3,4,5-trifluorophenyl)-methyl]pyrazolo[1,5-a]pyrimidin-7-ol], for which, under setting [1], the Ki is less than 10 nM.
Regarding `O=C1Nc2ccccc2C2(CCN(CCc3ccc(C(F)(F)F)cc3)CC2)O1` [RS102895, reference compound], the “inhibition of CCR2 calcium response” value (at 2 μM) is listed as “full inhibition”. Where the note is “reference antagonist, read-out: fKi”, the Ki worked out at 84 nM.

The record behind these values is patent US20130252951A1, “7-HYDROXY-PYRAZOLO[1,5-A] PYRIMIDINE COMPOUNDS AND THEIR USE AS CCR2 RECEPTOR ANTAGONISTS” (Proximagen Limited, priority 2010, published 2013).
